Experimental data as given in US9637470B2, “Treatment for substance use disorders and stress disorders” (Baylor College of Medicine, priority 2013, dated 2017).

What was measured:
humans = conditions: cited from earlier work
[1] = molecular target: T1, human serotonin transporter (Homo sapiens, UniProt P31645); assay: Serotonin transporter reuptake inhibition assay (prior art); type: cell-based; conditions: at 100 nM; across serotonin, norepinephrine, and dopamine transporters
T1 construct: expressed in transfected cells; host or cells: HEK-293
Description: Serotonin transporter reuptake inhibition was assayed using the method described by Gu H. et al., J Biol Chem., 1994, 269, p […], the entire contents of which are incorporated herein by reference. Recombinant HEK-293 cells with human serotonin transporter were plated. Test compounds were pre-incubated with cells (2×10^5/ml) in modified Tris-HEPES buffer at pH 7.1 for 20 min at 25° C. and were incubated for an additional 10 min after addition of 65 nM of [3H]Serotonin. Bound cells were filtered and counted to determine [3H]Serotonin uptake. Reduction of [3H]Serotonin uptake by 50 percent or more (≧50%) relative to 10 μM fluoxetine indicated significant inhibitory activity.

[2] = molecular target: T1, human serotonin transporter; conditions: at 100 nM; cited from earlier work
[3] = molecular target: T2, human recombinant norepinephrine transporter (Homo sapiens, UniProt P23975); conditions: at 100 nM; cited from earlier work
T2 construct: expressed in transfected cells; host or cells: MDCK

[4] = molecular target: T3, human recombinant dopamine transporter (Homo sapiens, UniProt Q01959); conditions: at 100 nM; cited from earlier work
T3 construct: expressed in transfected cells; host or cells: CHO-K1
T3 sequence (Q01959 whole entry): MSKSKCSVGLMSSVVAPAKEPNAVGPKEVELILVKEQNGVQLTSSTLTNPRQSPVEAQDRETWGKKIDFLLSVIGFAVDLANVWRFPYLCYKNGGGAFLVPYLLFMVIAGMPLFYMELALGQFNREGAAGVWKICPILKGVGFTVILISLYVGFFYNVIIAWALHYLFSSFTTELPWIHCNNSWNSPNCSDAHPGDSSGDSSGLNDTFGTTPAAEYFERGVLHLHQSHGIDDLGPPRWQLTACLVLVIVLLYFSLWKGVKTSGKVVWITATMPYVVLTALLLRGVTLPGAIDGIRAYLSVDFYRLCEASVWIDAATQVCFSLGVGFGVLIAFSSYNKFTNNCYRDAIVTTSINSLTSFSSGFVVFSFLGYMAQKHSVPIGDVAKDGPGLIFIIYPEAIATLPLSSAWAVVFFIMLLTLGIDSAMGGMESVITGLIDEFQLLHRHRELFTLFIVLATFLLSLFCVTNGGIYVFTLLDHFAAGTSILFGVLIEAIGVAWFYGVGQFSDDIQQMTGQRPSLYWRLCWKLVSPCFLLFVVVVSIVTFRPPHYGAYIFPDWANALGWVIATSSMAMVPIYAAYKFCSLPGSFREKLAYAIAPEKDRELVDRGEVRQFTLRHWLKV

T1 sequence (P31645 whole entry): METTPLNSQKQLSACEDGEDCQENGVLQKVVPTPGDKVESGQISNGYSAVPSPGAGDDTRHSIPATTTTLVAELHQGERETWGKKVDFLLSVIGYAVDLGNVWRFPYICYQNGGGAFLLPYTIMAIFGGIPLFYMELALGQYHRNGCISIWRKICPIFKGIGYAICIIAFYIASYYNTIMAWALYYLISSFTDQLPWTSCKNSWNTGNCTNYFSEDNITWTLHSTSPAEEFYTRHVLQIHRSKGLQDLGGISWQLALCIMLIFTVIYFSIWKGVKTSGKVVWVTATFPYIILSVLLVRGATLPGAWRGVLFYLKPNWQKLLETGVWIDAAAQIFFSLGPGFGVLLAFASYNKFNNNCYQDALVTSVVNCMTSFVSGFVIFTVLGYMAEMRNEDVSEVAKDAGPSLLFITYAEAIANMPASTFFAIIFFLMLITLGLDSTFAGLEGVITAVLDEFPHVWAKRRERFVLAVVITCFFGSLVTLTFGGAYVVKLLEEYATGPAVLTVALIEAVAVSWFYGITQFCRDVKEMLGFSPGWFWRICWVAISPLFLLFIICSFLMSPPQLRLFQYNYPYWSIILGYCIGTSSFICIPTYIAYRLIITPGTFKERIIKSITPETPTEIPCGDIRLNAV
T2 sequence (P23975 whole entry): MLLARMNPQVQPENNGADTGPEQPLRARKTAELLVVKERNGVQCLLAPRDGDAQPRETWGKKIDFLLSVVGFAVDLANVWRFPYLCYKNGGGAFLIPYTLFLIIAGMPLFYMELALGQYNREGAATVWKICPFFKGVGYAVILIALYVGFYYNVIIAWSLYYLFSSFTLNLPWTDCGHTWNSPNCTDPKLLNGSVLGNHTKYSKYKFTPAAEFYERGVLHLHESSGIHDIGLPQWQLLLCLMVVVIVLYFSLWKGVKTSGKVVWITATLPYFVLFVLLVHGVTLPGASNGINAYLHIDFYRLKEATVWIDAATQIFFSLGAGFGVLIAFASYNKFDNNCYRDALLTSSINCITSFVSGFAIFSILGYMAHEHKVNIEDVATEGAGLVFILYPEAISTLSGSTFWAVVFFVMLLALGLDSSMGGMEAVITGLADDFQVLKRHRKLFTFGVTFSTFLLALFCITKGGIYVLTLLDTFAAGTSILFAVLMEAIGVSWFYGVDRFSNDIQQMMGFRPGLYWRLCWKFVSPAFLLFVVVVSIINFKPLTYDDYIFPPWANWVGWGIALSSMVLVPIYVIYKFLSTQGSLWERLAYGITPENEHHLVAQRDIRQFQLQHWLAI

Compound	positive subjective effects in humans (comparators) (humans)	subtractive difference of reuptake inhibition percentages, at most [1] [%]	reuptake inhibition percentage, serotonin transporter [2] [%]	reuptake inhibition percentage, norepinephrine transporter [3] [%]	reuptake inhibition percentage, dopamine transporter [4] [%]
CCOC[C@@H]1[C@@H](c2ccc(Cl)c(Cl)c2)C[C@@H]2CC[C@H]1N2C [tesofensine]	does not produce positive subjective effects				
c1ccc2cc([C@H]([C@H]3CCCNC3)n3nccn3)ccc2c1 [Example Compound 14, (3S)-3-[(S)-naphthalen-2-yl(2H-1,2,3-triazol-2-yl)methyl]piperidine]		24	76	70	52
Clc1ccc([C@]23CNCC2C3)cc1Cl (stereo partly drawn) [amitifadine]	does not produce positive subjective effects				
